PubChem BioAssay AID298 (DTP/NCI, 2004)
Several values for one entry are separate records, joined by “and”; a condition that tells them apart may be missing. Equal values may be shown once. Results filed as inconclusive are left out.

Test system: MX-1 breast xenograft, intrarenal, nude mice, tumor weight
Test: NCI In Vivo Anticancer Drug Screen. Data for tumor model Human Mammary Carcinoma MX-1 Xenograft (intrarenal inoculation) in NU/NU BALB/C (nude) mice
Conditions: endpoint: mean tumor weight change, higher = larger tumour
How it was run: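 Transplantable tumors established in mice; animals dosed with compound or vehicle; survival or tumor size then recorded. Result reported as treated (T) divided by vehicle control (C).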

[1] = dose: 50.0 mg/kg/injection, schedule: Q04DX003 (ip), vehicle: Klucel (hydroxypropylcellulose) (HPC)
[2] = dose: 100.0 mg/kg/injection, schedule: Q04DX003 (ip), vehicle: Klucel (hydroxypropylcellulose) (HPC)
[3] = dose: 12.5 mg/kg/injection, schedule: Q04DX003 (ip), vehicle: other
[4] = dose: 25.0 mg/kg/injection, schedule: Q04DX003 (ip), vehicle: other
[5] = dose: 150.0 mg/kg/injection, schedule: Q04DX003 (sc), vehicle: saline
[6] = dose: 300.0 mg/kg/injection, schedule: Q04DX003 (sc), vehicle: saline
[7] = dose: 600.0 mg/kg/injection, schedule: Q04DX003 (sc), vehicle: saline
[8] = dose: 300.0 mg/kg/injection, schedule: Q04DX003 (ip), vehicle: saline
[9] = dose: 600.0 mg/kg/injection, schedule: Q04DX003 (ip), vehicle: saline
[10] = dose: 150.0 mg/kg/injection, schedule: Q04DX003 (ip), vehicle: saline

N#CC(C#N)=NNc1ccc2cn[nH]c2c1
T/C (dose: 12.5 mg/kg/injection, schedule: Q04DX003 (ip), vehicle: Klucel (hydroxypropylcellulose) (HPC)): 94 % of control
T/C [1]: 174 % of control
T/C [2]: 106 % of control

O=C(Nc1cccc(O)c1)C(Cl)=C(Cl)Cl
T/C (dose: 6.25 mg/kg/injection, schedule: Q04DX003 (ip), vehicle: other): 66 % of control
T/C (dose: 12.5 mg/kg/injection, schedule: Q04DX003 (ip), vehicle: DMSO): 112 % of control
T/C [3]: 68 % of control
T/C (dose: 25.0 mg/kg/injection, schedule: Q04DX003 (ip), vehicle: DMSO): 116 % of control
T/C [4]: 45 % of control
T/C (dose: 50.0 mg/kg/injection, schedule: Q04DX003 (ip), vehicle: DMSO): 47 % of control

Cc1nc(N)nc(N)c1N1CCN(c2ccc(C(=O)NC(CCC(=O)O)C(=O)O)cc2)CC1 (stereo unspecified)
T/C [3]: 85 % of control
T/C [4]: 112 % of control
T/C (dose: 50.0 mg/kg/injection, schedule: Q04DX003 (ip), vehicle: other): 122 % of control
T/C (dose: 100.0 mg/kg/injection, schedule: Q04DX003 (ip), vehicle: other): 87 % of control

C=C(C)C(=O)O[C@H]1CC2=C[C@@H](C[C@@]3(C)O[C@@H]3[C@H]3OC(=O)C(=C)[C@@H]31)OC2=O
T/C (dose: 37.5 mg/kg/injection, schedule: Q04DX003 (sc), vehicle: Klucel (hydroxypropylcellulose) (HPC)): 96 % of control
T/C (dose: 75.0 mg/kg/injection, schedule: Q04DX003 (sc), vehicle: Klucel (hydroxypropylcellulose) (HPC)): 78 % of control
T/C (dose: 150.0 mg/kg/injection, schedule: Q04DX003 (sc), vehicle: Klucel (hydroxypropylcellulose) (HPC)): 104 % of control
T/C (dose: 300.0 mg/kg/injection, schedule: Q04DX003 (sc), vehicle: Klucel (hydroxypropylcellulose) (HPC)): 72 % of control

CN(Cc1cnc2nc(N)nc(N)c2n1)c1ccc(C(=O)NC(CCC(=O)OC(C)(C)C)C(=O)O)cc1 (stereo unspecified)
T/C (dose: 25.0 mg/kg/injection, schedule: Q03HX015 (ip), vehicle: sodium bicarbonate): 62 % of control
T/C (dose: 50.0 mg/kg/injection, schedule: Q03HX015 (ip), vehicle: sodium bicarbonate): 110 % of control
T/C (dose: 100.0 mg/kg/injection, schedule: Q03HX015 (ip), vehicle: sodium bicarbonate): 54 % of control
T/C (dose: 200.0 mg/kg/injection, schedule: Q03HX015 (ip), vehicle: sodium bicarbonate): 116 % of control

COc1ccc2c(c1)n([O-])c1ccccc1[n+]2=O
T/C (dose: 50.0 mg/kg/injection, schedule: Q04DX003 (ip), vehicle: saline with Tween-80): 40 % of control
T/C (dose: 100.0 mg/kg/injection, schedule: Q04DX003 (ip), vehicle: saline with Tween-80): 48 % of control
T/C (dose: 200.0 mg/kg/injection, schedule: Q04DX003 (ip), vehicle: saline with Tween-80): 36 % of control

C/C=C/C=C\C=C/C(O)CC(OP(=O)(O)O)C(C)(O)/C=C/C1CC=CC(=O)O1 (stereo unspecified)
T/C (dose: 6.0 mg/kg/injection, schedule: Q04DX003 (ip), vehicle: water): 86 % of control
T/C (dose: 12.0 mg/kg/injection, schedule: Q04DX003 (ip), vehicle: water): 56 % of control
T/C (dose: 24.0 mg/kg/injection, schedule: Q04DX003 (ip), vehicle: water): 50 % of control

C1CC[N-]CC1.C1CC[N-]CC1.C1CC[N-]CC1.[Cl][Rh]([Cl])[Cl]
T/C (dose: 75.0 mg/kg/injection, schedule: Q04DX003 (sc), vehicle: saline): 90 % of control
T/C [5]: 90 % of control
T/C [6]: 75 % of control

CC1(C)OCC2OC=CC(=O)C2O1 (stereo unspecified)
T/C [5]: 110 % of control
T/C [6]: 97 % of control
T/C [7]: 74 % of control

N=C(N)c1ccc(Nc2ccc(-c3cc4ccc(C(=N)N)cc4[nH]3)cc2)cc1
T/C (dose: 3.75 mg/kg/injection, schedule: Q04DX003 (ip), vehicle: saline): 84 % of control
T/C (dose: 7.5 mg/kg/injection, schedule: Q04DX003 (ip), vehicle: saline): 69 % of control
T/C (dose: 15.0 mg/kg/injection, schedule: Q04DX003 (ip), vehicle: saline): 62 % of control

O=C1C2=C(Nc3cc([N+](=O)[O-])ccc3N2)OC1c1ccccn1 (stereo unspecified)
T/C [1]: 87 % of control
T/C [2]: 66 % of control
T/C (dose: 200.0 mg/kg/injection, schedule: Q04DX003 (ip), vehicle: Klucel (hydroxypropylcellulose) (HPC)): 118 % of control
T/C (dose: 400.0 mg/kg/injection, schedule: Q04DX003 (ip), vehicle: Klucel (hydroxypropylcellulose) (HPC)): 63 % of control

NC(=O)SCC(N)C(=O)O (stereo unspecified)
T/C [8]: 88 % of control
T/C (dose: 400.0 mg/kg/injection, schedule: Q04DX003 (sc), vehicle: saline): 49 % of control
T/C [9]: 80 % of control
T/C [7]: 37 % of control and 52 % of control
T/C (dose: 750.0 mg/kg/injection, schedule: Q04DX003 (sc), vehicle: saline): 53 % of control
T/C (dose: 900.0 mg/kg/injection, schedule: Q04DX003 (sc), vehicle: saline): 16 % of control and 38 % of control

COc1cc(C(C)c2cc3c(cc2OCCO)OCO3)cc(OC)c1OC (stereo unspecified)
T/C [10]: 69 % of control
T/C [8]: 65 % of control
T/C [9]: 21 % of control

CN(CN1C(=O)CCC1=O)CN1C(=O)CCC1=O
T/C [10]: 91 % of control
T/C [8]: 61 % of control

c1ccc2c(c1)-c1ccccc1C1NC21 (stereo unspecified)
T/C (dose: 37.5 mg/kg/injection, schedule: Q04DX003 (sc), vehicle: saline with Tween-80): 60 % of control
T/C (dose: 75.0 mg/kg/injection, schedule: Q04DX003 (sc), vehicle: saline with Tween-80): 30 % of control

O=C(NC(Cc1ccc(I)cc1)C(=O)O)c1ccc(Br)cc1 (stereo unspecified)
T/C (dose: 37.5 mg/kg/injection, schedule: Q04DX003 (ip), vehicle: sodium bicarbonate): 92 % of control
T/C (dose: 150.0 mg/kg/injection, schedule: Q04DX003 (ip), vehicle: sodium bicarbonate): 87 % of control and 112 % of control
T/C (dose: 300.0 mg/kg/injection, schedule: Q04DX003 (ip), vehicle: sodium bicarbonate): 78 % of control

CN(C)c1ccc(C(=C2C=CC(=[N+](C)C)C=C2)c2ccc(N(C)C)cc2)cc1 (tested in a mixture with another compound)
T/C (dose: 15.0 mg/kg/injection, schedule: Q04DX003 (sc), vehicle: saline with Tween-80): 124 % of control
T/C (dose: 30.0 mg/kg/injection, schedule: Q04DX003 (sc), vehicle: saline with Tween-80): 84 % of control
T/C (dose: 60.0 mg/kg/injection, schedule: Q04DX003 (sc), vehicle: saline with Tween-80): 98 % of control
T/C (dose: 120.0 mg/kg/injection, schedule: Q04DX003 (sc), vehicle: saline with Tween-80): 75 % of control
T/C (dose: 150.0 mg/kg/injection, schedule: Q04DX003 (sc), vehicle: saline with Tween-80): 73 % of control

CC[C@](C)(O)C(=O)O[C@H]1C(=O)O[C@@H]2C[C@H]3C(C)=CC(=O)[C@@H](O)[C@]3(C)[C@H]3[C@@]4(O)OC[C@]32[C@@H]1[C@@H](C)[C@H]4O
T/C (dose: 0.25 mg/kg/injection, schedule: Q01DX010 (sc), vehicle: Klucel (hydroxypropylcellulose) (HPC)): 23 % of control
T/C (dose: 0.5 mg/kg/injection, schedule: Q01DX010 (sc), vehicle: Klucel (hydroxypropylcellulose) (HPC)): 2 % of control

COc1ccc(C[C@@H]2NC[C@@H](O)[C@@H]2OC(C)=O)cc1
T/C (dose: 150.0 mg/kg/injection, schedule: Q04DX003 (ip), vehicle: saline with Tween-80): 78 % of control
T/C (dose: 300.0 mg/kg/injection, schedule: Q04DX003 (ip), vehicle: saline with Tween-80): 110 % of control

OC1(CSc2ccccc2)CCCCC1
T/C (dose: 300.0 mg/kg/injection, schedule: Q04DX003 (sc), vehicle: saline with Tween-80): 98 % of control
T/C (dose: 600.0 mg/kg/injection, schedule: Q04DX003 (sc), vehicle: saline with Tween-80): 112 % of control

CO[C@@H]1C2=CC=CC=C[C@H]2n2c(=O)n(C)c(=O)n21
T/C (dose: 75.0 mg/kg/injection, schedule: Q04DX003 (ip), vehicle: other): 36 % of control
T/C (dose: 150.0 mg/kg/injection, schedule: Q04DX003 (ip), vehicle: other): 34 % of control
T/C (dose: 300.0 mg/kg/injection, schedule: Q04DX003 (ip), vehicle: other): 92 % of control

O=C(O)c1ccc(C(=O)O)c(C(=O)O)c1.[NH-]C1CCCCC1[NH-].[Pt+2]
T/C (dose: 3.12 mg/kg/injection, schedule: Q01DX010 (sc), vehicle: sodium bicarbonate): 74 % of control
T/C (dose: 6.25 mg/kg/injection, schedule: Q01DX010 (sc), vehicle: sodium bicarbonate): 40 % of control
T/C (dose: 12.5 mg/kg/injection, schedule: Q01DX010 (sc), vehicle: sodium bicarbonate): 6 % of control

COc1cccc2c1C(=O)c1c(O)c3c(c(O)c1C2=O)C[C@@](O)(/C(C)=N\O)C[C@@H]3OC1CC(N)C(O)C(C)O1 (stereo partly specified)
T/C (dose: 12.5 mg/kg/injection, schedule: Q04DX003 (sc), vehicle: saline): 64 % of control
T/C (dose: 25.0 mg/kg/injection, schedule: Q04DX003 (sc), vehicle: saline): 58 % of control
T/C (dose: 50.0 mg/kg/injection, schedule: Q04DX003 (sc), vehicle: saline): 23 % of control
